Patent US20220144854A1, “MACROCYCLIC COMPOUNDS” (ZENO MANAGEMENT, INC., priority 2019, published 2022)

Assays:
[1] = from COC(=O)c1c(CCCI)c2ccc(Cl)c(-c3c(CN(Cc4cc(CCc5cc(O)c6ccccc6c5)n(C)n4)C(=O)OC(C)(C)C)nn4c3CCC4)c2n1C; ether bond; 21-membered ring; K2CO3; MeCN; 3.61 mM; 60.0 °C
[2] = tested on: NCI-H929 (ATCC CRL-9068) cells; test: NCI-H929 cell proliferation assay (CellTiter-Glo); format: cell-based; conditions: Homo sapiens, NCI-H929, 72 h, 72 h of compound treatment
Mcl-1 = Mcl-1 (Homo sapiens, UniProt Q07820); test: Mcl-1 Homogeneous Time Resolved Fluorescence (HTRF) binding assay; conditions: HTRF; 4 nM Mcl-1, 100 nM FAM-Bak peptide; 10-dose, singlicate; read-out: Mcl-1 IC50
Mcl-1, sequence (Q07820 whole entry): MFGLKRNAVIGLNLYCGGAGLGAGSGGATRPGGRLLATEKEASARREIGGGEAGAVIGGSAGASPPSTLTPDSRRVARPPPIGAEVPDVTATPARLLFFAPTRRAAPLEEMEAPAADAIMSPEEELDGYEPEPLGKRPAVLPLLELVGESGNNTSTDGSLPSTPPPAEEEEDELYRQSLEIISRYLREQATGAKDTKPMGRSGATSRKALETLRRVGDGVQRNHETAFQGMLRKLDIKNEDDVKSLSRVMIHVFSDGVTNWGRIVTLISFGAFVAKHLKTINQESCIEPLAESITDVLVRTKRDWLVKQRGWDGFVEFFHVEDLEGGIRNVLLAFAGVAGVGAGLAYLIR

Compound | ring closure, isolated yield [1] | IC50 [2] | IC50 (Mcl-1)
COC(=O)c1c2c3ccc(Cl)c(c3n1C)-c1c(nn3c1CCC3)CN(C(=O)OC(C)(C)C)Cc1cc(n(C)n1)CCc1cc(c3ccccc3c1)OCCC2 | 40% |  | 
Cc1nn(C23CC(C2)C3)c2c1-c1c(Cl)ccc3c(c(C(=O)O)n(C)c13)CCCOc1cc(cc3ccccc13)SCc1cc(n[nH]1)CSC2 (single isomer, unassigned) [Example 21B, (Z)-2^1-(Bicyclo[1.1.1]pentan-1-yl)-1^6-chloro-1^1,2^3-dimethyl-1^1H,2^1H,6^1H-10-oxa-4,8-dithia-1(7,3)-indola-2(4,5),6(3,5)-dipyrazola-9(3,1)-naphthalenacyclotridecaphane-1^2-carboxylic acid] |  | < 100 nM | < 10 nM
